pEC50: −log10 of the molar value.
target: REV-ERBα LBD (Homo sapiens, UniProt P20393, DEL324-422); experiment: biochemical; conditions: FRET assay; 6xHistag-REV-ERBα LBD with FITC-labeled SMRT corepressor peptide; read-out: REVERBα (Agonism of REV-ERBα, EC50)
Summary of the method: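 Serially diluted ligands were incubated 2 h at 4° C, in triplicate, with E. coli-expressed His-REV-ERBα LBD (281-614 Δ324-422 or 381-579; 4 nM), Tb-anti-His (1 nM) and FITC-labelled SMRT peptide (400 nM). EC50 came from sigmoidal fits of the 520/495 nm TR-FRET ratio.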

REV-ERBα LBD, sequence (P20393 with tags, fused parts or gaps DEL324-422): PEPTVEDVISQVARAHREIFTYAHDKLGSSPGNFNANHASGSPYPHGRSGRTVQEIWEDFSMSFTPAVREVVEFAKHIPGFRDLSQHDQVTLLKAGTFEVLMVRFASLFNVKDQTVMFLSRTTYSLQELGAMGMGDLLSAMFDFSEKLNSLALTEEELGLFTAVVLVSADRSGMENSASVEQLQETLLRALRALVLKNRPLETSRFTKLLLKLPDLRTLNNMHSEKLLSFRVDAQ
REV-ERBα LBD, sequence (Q9Y618 2335-2356 partner limits assumed): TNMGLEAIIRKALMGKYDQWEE

SMILES | pEC50
CC(NS(=O)(=O)C1CC1)c1cn(CC(C)(C)C)c2cc(-c3ccc(F)cn3)c(F)cc12 (stereo not drawn) [Compound 64, N-(1-(5-fluoro-6-(5-fluoropyridin-2-yl)-1-neopentyl-1H-indol-3-yl)ethyl)cyclopropanesulfonamide] | 6.00 to 7.00
CC(NS(=O)(=O)C1CC1)c1cn(CC(C)(C)C)c2cc(-c3cncc(F)c3)c(F)cc12 (stereo not drawn) [Compound 68, N-(1-(5-fluoro-6-(5-fluoropyridin-3-yl)-1-neopentyl-1H-indol-3-yl)ethyl)cyclopropanesulfonamide] | 6.00 to 7.00
CC(NS(=O)(=O)C1CC1)c1cn(CC(C)(C)C)c2cc(-c3ccc(C#N)nc3)c(F)cc12 (stereo not drawn) [Compound 69, N-(1-(6-(6-cyanopyridin-3-yl)-5-fluoro-1-neopentyl-1H-indol-3-yl)ethyl)cyclopropanesulfonamide] | 6.00 to 7.00
CC(NS(=O)(=O)C1CC1)c1cn(CC(C)(C)C)c2cc(-c3ccc(C(F)(F)F)nc3)c(F)cc12 (stereo not drawn) [Compound 70, N-(1-(5-fluoro-1-neopentyl-6-(6-(trifluoromethyl)pyridin-3-yl)-1H-indol-3-yl)ethyl)cyclopropanesulfonamide] | 6.00 to 7.00
CC(NS(=O)(=O)C1CC1)c1cn(CC(C)(C)C)c2cc(-c3cnccc3F)c(F)cc12 (stereo not drawn) [Compound 72, N-(1-(5-fluoro-6-(4-fluoropyridin-3-yl)-1-neopentyl-1H-indol-3-yl)ethyl)cyclopropanesulfonamide] | 6.00 to 7.00
CN(C)S(=O)(=O)N[C@@H](c1cn(CC(C)(C)C)c2cc(-c3ncc(F)cc3C(F)(F)F)ccc12)C(F)F [Compound 74] | > 7.00
CN(C)S(=O)(=O)N[C@@H](c1cn(CC(C)(C)C)c2cc(-c3c(C#N)cccc3C(F)(F)F)ccc12)C(F)F [Compound 75] | > 7.00
CC(C)(C)Cn1cc([C@H](NS(=O)(=O)N2CC(F)C2)C(F)F)c2cc(F)c(-c3ccccc3C(F)(F)F)cc21 [Compound 76, (S)—N-(2,2-difluoro-1-(5-fluoro-1-neopentyl-6-(2-(trifluoromethyl)phenyl)-1H-indol-3-yl)ethyl)-3-fluoroazetidine-1-sulfonamide] | > 7.00
CC(C)(C)Cn1cc([C@H](NS(=O)(=O)C2CC2)C(F)F)c2ccc(-c3ncc(Cl)cc3F)cc21 [Compound 77, (S)—N-(1-(6-(5-chloro-3-fluoropyridin-2-yl)-1-neopentyl-1H-indol-3-yl)-2,2-difluoroethyl)cyclopropanesulfonamide] | > 7.00
CC(C)(C)Cn1cc([C@H](NS(=O)(=O)C2CC2)C(F)F)c2ccc(-c3ncc(F)cc3Cl)cc21 [Compound 78, (S)—N-(1-(6-(3-chloro-5-fluoropyridin-2-yl)-1-neopentyl-1H-indol-3-yl)-2,2-difluoroethyl)cyclopropanesulfonamide] | > 7.00
CC(C)(C)Cn1cc([C@H](NS(=O)(=O)C2CC2)C(F)F)c2ccc(-c3cnccc3C(F)(F)F)cc21 [Compound 79, (S)—N-(2,2-difluoro-1-(1-neopentyl-6-(4-(trifluoromethyl)pyridin-3-yl)-1H-indol-3-yl)ethyl)cyclopropanesulfonamide] | > 7.00
CC(C)(C)Cn1cc([C@H](NS(=O)(=O)C2CC2)C(F)F)c2ccc(-c3cncnc3C(F)(F)F)cc21 [Compound 80, (S)—N-(2,2-difluoro-1-(1-neopentyl-6-(4-(trifluoromethyl)pyrimidin-5-yl)-1H-indol-3-yl)ethyl)cyclopropanesulfonamide] | > 7.00
CC(C)(C)Cn1cc([C@H](NS(=O)(=O)C2CC2)C(F)F)c2ccc(-c3ccccc3C(F)F)cc21 [Compound 81, (S)—N-(1-(6-(2-(difluoromethyl)phenyl)-1-neopentyl-1H-indol-3-yl)-2,2-difluoroethyl)cyclopropanesulfonamide] | > 7.00
CC(C)(C)Cn1cc([C@H](NS(=O)(=O)C2CC2)C(F)F)c2ccc(-c3c(C(F)(F)F)ccnc3C#N)cc21 [Compound 82, (S)—N-(1-(6-(2-cyano-4-(trifluoromethyl)pyridin-3-yl)-1-neopentyl-1H-indol-3-yl)-2,2-difluoroethyl)cyclopropanesulfonamide] | > 7.00
CC(C)(C)Cn1cc([C@H](NS(=O)(=O)C2CC2)C(F)F)c2ccc(-c3ncccc3F)cc21 [Compound 83, (S)—N-(2,2-difluoro-1-(6-(3-fluoropyridin-2-yl)-1-neopentyl-1H-indol-3-yl)ethyl)cyclopropanesulfonamide] | > 7.00
CC(C)(C)Cn1cc([C@H](NS(=O)(=O)C2CC2)C(F)F)c2ccc(-c3ncc(F)cc3F)cc21 [Compound 84, (S)—N-(1-(6-(3,5-difluoropyridin-2-yl)-1-neopentyl-1H-indol-3-yl)-2,2-difluoroethyl)cyclopropanesulfonamide] | > 7.00
CC(C)(C)Cn1cc([C@H](NS(=O)(=O)C2CC2)C(F)F)c2ccc(-c3ncccc3Cl)cc21 [Compound 85, (S)—N-(1-(6-(3-chloropyridin-2-yl)-1-neopentyl-1H-indol-3-yl)-2,2-difluoroethyl)cyclopropanesulfonamide] | > 7.00
CC(C)(C)Cn1cc([C@H](NS(=O)(=O)C2CC2)C(F)F)c2ccc(-c3cc(F)cnc3C#N)cc21 [Compound 86, (S)—N-(1-(6-(2-cyano-5-fluoropyridin-3-yl)-1-neopentyl-1H-indol-3-yl)-2,2-difluoroethyl)cyclopropanesulfonamide] | > 7.00
CC(C)(C)Cn1cc([C@H](NS(=O)(=O)C2CC2)C(F)F)c2ccc(-c3cccnc3C(F)F)cc21 [Compound 87, (S)—N-(1-(6-(2-(difluoromethyl)pyridin-3-yl)-1-neopentyl-1H-indol-3-yl)-2,2-difluoroethyl)cyclopropanesulfonamide] | > 7.00
CC(C)(C)Cn1cc([C@H](NS(=O)(=O)C2CC2)C(F)F)c2ccc(-c3ncc(F)cc3C#N)cc21 [Compound 88, (S)—N-(1-(6-(3-cyano-5-fluoropyridin-2-yl)-1-neopentyl-1H-indol-3-yl)-2,2-difluoroethyl)cyclopropanesulfonamide] | > 7.00
CC(C)(C)Cn1cc([C@H](NS(=O)(=O)C2CC2)C(F)F)c2cc(F)c(-c3ncccc3F)cc21 [Compound 89, (S)—N-(2,2-difluoro-1-(5-fluoro-6-(3-fluoropyridin-2-yl)-1-neopentyl-1H-indol-3-yl)ethyl)cyclopropanesulfonamide] | > 7.00
CC(C)(C)Cn1cc([C@H](NS(=O)(=O)C2CC2)C(F)F)c2cc(F)c(-c3ncccc3Cl)cc21 [Compound 90, (S)—N-(1-(6-(3-chloropyridin-2-yl)-5-fluoro-1-neopentyl-1H-indol-3-yl)-2,2-difluoroethyl)cyclopropanesulfonamide] | > 7.00

Further lines, results first:

pEC50 | SMILES
> 7.00 | CC(NS(=O)(=O)C1CC1)c1cn(CC(C)(C)C)c2cc(-c3ncccc3Cl)c(F)cc12 (stereo not drawn) [Compound 58, N-[1-[6-(3-chloro-2-pyridyl)-1-(2,2-dimethylpropyl)-5-fluoro-indol-3-yl]ethyl]cyclopropanesulfonamide]
> 7.00 | CC(NS(=O)(=O)C1CC1)c1cn(CC(C)(C)C)c2cc(-c3ncccc3F)c(F)cc12 (stereo not drawn) [Compound 59, N-[1-[1-(2,2-dimethylpropyl)-5-fluoro-6-(3-fluoro-2-pyridyl)indol-3-yl]ethyl]cyclopropanesulfonamide]
> 7.00 | CC(NS(=O)(=O)C1CC1)c1cn(CC(C)(C)C)c2cc(-c3ncccc3C3CC3)c(F)cc12 (stereo not drawn) [Compound 60, N-(1-(6-(3-cyclopropylpyridin-2-yl)-5-fluoro-1-neopentyl-1H-indol-3-yl)ethyl)cyclopropanesulfonamide]
> 7.00 | CC(NS(=O)(=O)C1CC1)c1cn(CC(C)(C)C)c2cc(-c3ncccc3OC(F)F)c(F)cc12 (stereo not drawn) [Compound 61, N-(1-(6-(3-(difluoromethoxy)pyridin-2-yl)-5-fluoro-1-neopentyl-1H-indol-3-yl)ethyl)cyclopropanesulfonamide]
> 7.00 | CC(NS(=O)(=O)C1CC1)c1cn(CC(C)(C)C)c2cc(-c3ncc(F)cc3Cl)c(F)cc12 (stereo not drawn) [Compound 62, N-(1-(6-(3-chloro-5-fluoropyridin-2-yl)-5-fluoro-1-neopentyl-1H-indol-3-yl)ethyl)cyclopropanesulfonamide]
> 7.00 | CC(NS(=O)(=O)C1CC1)c1cn(CC(C)(C)C)c2cc(-c3ncc(F)cc3C#N)c(F)cc12 (stereo not drawn) [Compound 63, N-(1-(6-(3-cyano-5-fluoropyridin-2-yl)-5-fluoro-1-neopentyl-1H-indol-3-yl)ethyl)cyclopropanesulfonamide]
> 7.00 | CC(NS(=O)(=O)C1CC1)c1cn(CC(C)(C)C)c2cc(-c3cccnc3C(F)F)c(F)cc12 (stereo not drawn) [Compound 65, N-(1-(6-(2-(difluoromethyl)pyridin-3-yl)-5-fluoro-1-neopentyl-1H-indol-3-yl)ethyl)cyclopropanesulfonamide]
> 7.00 | Cc1ncc(F)cc1-c1cc2c(cc1F)c(C(C)NS(=O)(=O)C1CC1)cn2CC(C)(C)C (stereo not drawn) [Compound 66, N-(1-(5-fluoro-6-(5-fluoro-2-methylpyridin-3-yl)-1-neopentyl-1H-indol-3-yl)ethyl)cyclopropanesulfonamide]
> 7.00 | CC(NS(=O)(=O)C1CC1)c1cn(CC(C)(C)C)c2cc(-c3cc(F)cnc3C#N)c(F)cc12 (stereo not drawn) [Compound 67, N-(1-(6-(2-cyano-5-fluoropyridin-3-yl)-5-fluoro-1-neopentyl-1H-indol-3-yl)ethyl)cyclopropanesulfonamide]
> 7.00 | Cc1ccncc1-c1cc2c(cc1F)c(C(C)NS(=O)(=O)C1CC1)cn2CC(C)(C)C (stereo not drawn) [Compound 71, N-(1-(5-fluoro-6-(4-methylpyridin-3-yl)-1-neopentyl-1H-indol-3-yl)ethyl)cyclopropanesulfonamide]
> 7.00 | CC(NS(=O)(=O)C1CC1)c1cn(CC(C)(C)C)c2cc(-c3cnccc3Cl)c(F)cc12 (stereo not drawn) [Compound 73, N-[1-[6-(4-chloro-3-pyridyl)-1-(2,2-dimethylpropyl)-5-fluoro-indol-3-yl]ethyl]cyclopropanesulfonamide]

From patent US20260285846A1, “REV-ERB AGONISTS FOR TH17-MEDIATED INFLAMMATORY DISORDERS” (UNIVERSITY OF FLORID RESEARCH FOUNDATION, iNCORPORATED, priority 2021, published 2026)
